In ChEMBL document CHEMBL3797052 (Eur J Med Chem, 2016):

What was measured:
Type in all cases: functional
[1] = Cytotoxicity against human SKBR3 cells assessed as growth inhibition at 100 uM after 2 days by MTT assay; conditions: SK-BR-3, 48 h, read-out: GI
[2] = Cytotoxicity against human HCT116 cells assessed as growth inhibition at 10 uM after 2 days by MTT assay; conditions: HCT-116, 48 h, read-out: GI
[3] = Cytotoxicity against human HCT116 cells assessed as growth inhibition at 100 uM after 2 days by MTT assay; conditions: HCT-116, 48 h, read-out: GI
[4] = Cytotoxicity against human SKBR3 cells assessed as growth inhibition at 10 uM after 2 days by MTT assay; conditions: SK-BR-3, 48 h, read-out: GI

Which inhibition of growth at 100 µM [1] does the source give for `CNC(=O)c1cc(Oc2ccc3nc(NC(=O)Nc4ccc(N5CCOCC5)cc4)sc3c2)ccn1` here?
The inhibition of growth at 100 µM was 77.7%.

What about the inhibition of growth at 10 µM [2] of the same molecule?
Its inhibition of growth at 10 µM is 1.58%.

What about the inhibition of growth at 100 µM [3] of the same molecule?
The inhibition of growth at 100 µM was 73.3%.

And the inhibition of growth at 10 µM [4]?
Its inhibition of growth at 10 µM is 14.1%.

What does the source list for `CNC(=O)c1cc(Oc2ccc3nc(NC(=O)Nc4cc(C(F)(F)F)ccc4Cl)sc3c2)ccn1`?
inhibition of growth at 100 µM [1]: 89.1%; inhibition of growth at 10 µM [2]: 16.3%; inhibition of growth at 100 µM [3]: 90%; inhibition of growth at 10 µM [4]: 28.3%

With `CNC(=O)c1cc(Oc2ccc3nc(NC(=O)Nc4ccc(N5CCN(C)CC5)cc4)sc3c2)ccn1` as the molecule, how does the inhibition of growth at 100 µM [1] read?
Its inhibition of growth at 100 µM is 86.4%.

And the inhibition of growth at 10 µM [2]?
Its inhibition of growth at 10 µM is 24.6%.

And the inhibition of growth at 100 µM [3]?
The inhibition of growth at 100 µM was 95%.

What about the inhibition of growth at 10 µM [4] of the same molecule?
The inhibition of growth at 10 µM was 30.5%.

With `CNC(=O)c1cc(Oc2ccc3nc(NC(=O)c4cc(Cl)cc(Cl)c4)sc3c2)ccn1` as the molecule, how does the inhibition of growth at 100 µM [1] read?
Its inhibition of growth at 100 µM is 84.2%.

And the inhibition of growth at 10 µM [2]?
The inhibition of growth at 10 µM was 13.4%.

And the inhibition of growth at 100 µM [3]?
Its inhibition of growth at 100 µM is 15.8%.

And the inhibition of growth at 10 µM [4]?
The inhibition of growth at 10 µM was 9.62%.

Which inhibition of growth at 100 µM [1] does the source give for `CNC(=O)c1cc(Oc2ccc3nc(NC(=O)Nc4ccc(F)cc4)sc3c2)ccn1` here?
The inhibition of growth at 100 µM was 72.9%.

What about the inhibition of growth at 10 µM [2] of the same molecule?
The inhibition of growth at 10 µM was 12.2%.

What about the inhibition of growth at 100 µM [3] of the same molecule?
The inhibition of growth at 100 µM was 83.8%.

And the inhibition of growth at 10 µM [4]?
The inhibition of growth at 10 µM was 14.2%.

What does the source list for `CNC(=O)c1cc(Oc2ccc3nc(NC(=O)c4cc5ccccc5o4)sc3c2)ccn1`?
inhibition of growth at 100 µM [1]: 52.4%; inhibition of growth at 10 µM [2]: 9.15%; inhibition of growth at 100 µM [3]: 77.5%; inhibition of growth at 10 µM [4]: 54.4%

Which results are given for `CNC(=O)c1cc(Oc2ccc3nc(NC(=O)Nc4ccc(Br)cc4)sc3c2)ccn1`?
inhibition of growth at 100 µM [1]: 69.2%; inhibition of growth at 10 µM [2]: 12.1%; inhibition of growth at 100 µM [3]: 80%; inhibition of growth at 10 µM [4]: 26.7%

Which results are given for `CNC(=O)c1cc(Oc2ccc3nc(NC(=O)Nc4ccc(Cl)cc4Cl)sc3c2)ccn1`?
inhibition of growth at 100 µM [1]: 91.7%; inhibition of growth at 10 µM [2]: 32.2%; inhibition of growth at 100 µM [3]: 93.6%; inhibition of growth at 10 µM [4]: 22.3%

What does the source list for `CNC(=O)c1cc(Oc2ccc3nc(NC(=O)c4ccc(Cl)cc4)sc3c2)ccn1`?
inhibition of growth at 100 µM [1]: 83%; inhibition of growth at 10 µM [2]: 27.5%; inhibition of growth at 100 µM [3]: 80.5%; inhibition of growth at 10 µM [4]: 18.9%

What does the source list for `CNC(=O)c1cc(Oc2ccc3nc(NC(=O)c4ccc(Cl)cc4Cl)sc3c2)ccn1`?
inhibition of growth at 100 µM [1]: 81%; inhibition of growth at 10 µM [2]: 15.1%; inhibition of growth at 100 µM [3]: 64.4%; inhibition of growth at 10 µM [4]: 14%
